Ends that are not written are not given here.
Test system: subjects with osteoarthritis of the knees
Experiment: Clinical study of TPX-100, safety and tolerability of intra-articular administration
Format: in vivo, human

**Q.** For TDLQERGDNDISPFSGDGQPFKD-NH2 [TPX-100], which Dose-limiting toxicities (Part A, 20, 50, 100 and 200 mg per intra-articular injection, 4 weekly injections) is on record?
**A.** no dose-limiting toxicities

**Q.** And the “Severe adverse events related to the drug treatment” value (throughout the study period)?
**A.** no severe adverse events likely or possibly related to the drug treatment

**Q.** What about the “Severity of treatment-related adverse events” value (throughout the study period) of the same substance?
**A.** mild or moderate, transient

**Q.** What about the “Safety and tolerability of treatments” value (throughout the study period (12 months)) of the same substance?
**A.** safe and well tolerated
